A word on the bioavailability: it is the share of a dose that reaches the circulation, judged against a reference dose that is usually intravenous.

Positions of bridges follow the written chain, without caps; N, C: chain ends. Residues, ends and D or L forms follow the SMILES beside them. Some results are limits rather than exact numbers.

This is an account of results in patent publication US7772188B2, “Methods and compositions for the treatment of gastrointestinal disorders” (priority 2003, dated 2010).

One data set concerns the target T1, intestinal GC-C receptor (Homo sapiens, UniProt P25092).
T1 construct: host or cells: T84 human colon carcinoma cells
The experiment in a line: Intestinal GC-C receptor activity assay (cyclic GMP by EIA in T84 cells). In kind it is cell-based. As to conditions: chemically synthesized peptides, FIG. 2. The protocol:
The ability of SEQ ID NO:5, SEQ ID NO:4, and SEQ ID NO:3 to activate the intestinal GC-C receptor was assessed in an assay employing the T84 human colon carcinoma cell line (American Type Culture Collection (Bethesda, Md.)). For the assays cells were grown to confluency in 24-well culture plates with a 1:1 mixture of Ham's F12 medium and Dulbecco's modified Eagle's medium (DMEM), supplemented with 5% fetal calf serum and were used at between passages 54 and 60.
Briefly, monolayers of T84 cells in 24-well plates were washed twice with 1 ml/well DMEM, then incubated at 37° C. for 10 min with 0.45 ml DMEM containing 1 mM isobutylmethylxanthine (IBMX), a cyclic nucleotide phosphodiesterase inhibitor. Test peptides (50 μl) were then added and incubated for 30 minutes at 37° C. The media was aspirated and the reaction was then terminated by the addition of ice cold 0.5 ml of 0.1N HCl. The samples were held on ice for 20 minutes and then evaporated to dryness using a heat gun or vacuum centrifugation. The dried samples were resuspended in 0.5 ml of phosphate buffer provided in the Cayman Chemical Cyclic GMP EIA kit (Cayman Chemical, Ann Arbor, Mich.). Cyclic GMP was measured by EIA according to procedures outlined in the Cayman Chemical Cyclic GMP EIA kit.

Data set [1] relates to abdominal response to colorectal distension. The experiment in a line: Trinitrobenzenesulphonic acid (TNBS)-induced rectal allodynia model, colorectal distension. It counts as in vivo, Wistar rats. As to conditions: rats, FIG. 7. The protocol:
Male Wistar rats (220-250 g) were premedicated with 0.5 mg/kg of acepromazine injected intraperitoneally (IP) and anesthetized by intramuscular administration of 100 mg/kg of ketamine. Pairs of nichrome wire electrodes (60 cm in length and 80 μm in diameter) were implanted in the striated muscle of the abdomen, 2 cm laterally from the white line. The free ends of electrodes were exteriorized on the back of the neck and protected by a plastic tube attached to the skin. Electromyographic (EMG) recordings were started 5 days after surgery. Electrical activity of abdominal striated muscle was recorded with an electroencephalograph machine (Mini VIII, Alvar, Paris, France) using a short time constant (0.03 sec.) to remove low-frequency signals (<3 Hz).
Ten days post surgical implantation, trinitrobenzenesulphonic acid (TNBS) was administered to induce rectal inflammation. TNBS (80 mg kg^−1 in 0.3 ml 50% ethanol) was administered intrarectally through a silicone rubber catheter introduced at 3 cm from the anus under light diethyl-ether anesthesia, as described (Morteau et al. 1994 Dig Dis Sci 39:1239). […] Evaluation of rectal sensitivity, as measured by EMG, was performed before (1-2 days) and 3 days following rectal instillation of TNBS.
The number of spike bursts that corresponds to abdominal contractions was determined per 5 min periods. […]

Data set [2] in a line: Bioavailability study in mice, serum detection by LCMS. The conditions noted are these: FIG. 10b. It counts as in vivo. The protocol:
A similar bioavailability study was performed in which LCMS rather than ELISA was used to detect SEQ ID NO:3. Initially, serum samples were extracted from the whole blood of exposed and control mice, then injected directly ([…]) onto an in-line solid phase extraction (SPE) column (Waters Oasis HLB […] column, 2.0×15 mm direct connect) without further processing. The sample on the SPE column was washed with a 5% methanol, 95% dH2O solution (2.1 mL/min, 1.0 minute), then loaded onto an analytical column using a valve switch that places the SPE column in an inverted flow path onto the analytical column (Waters Xterra MS C8 5 mm IS column, 2.1×20 mm). The sample was eluted from the analytical column with a reverse phase gradient (Mobile Phase A: 10 mM ammonium hydroxide in dH2O, Mobile Phase B: 10 mM ammonium hydroxide in 80% acetonitrile and 20% methanol; 20% B for the first 3 minutes then ramping to 95% B over 4 min. and holding for 2 min., all at a flow rate of 0.4 mL/min.). At 9.1 minutes, the gradient returns to the initial conditions of 20% B for 1 min. SEQ ID NO:3 eluted from the analytical column at 1.45 minutes, and was detected by triple-quadrapole mass spectrometry (MRM, 764 (+2 charge state)>182 (+1 charge state) Da; cone voltage=30V; collision=20 eV; parent resolution=2 Da at base peak; daughter resolution=2 Da at base peak). […]

T1 sequence (P25092 24-1073): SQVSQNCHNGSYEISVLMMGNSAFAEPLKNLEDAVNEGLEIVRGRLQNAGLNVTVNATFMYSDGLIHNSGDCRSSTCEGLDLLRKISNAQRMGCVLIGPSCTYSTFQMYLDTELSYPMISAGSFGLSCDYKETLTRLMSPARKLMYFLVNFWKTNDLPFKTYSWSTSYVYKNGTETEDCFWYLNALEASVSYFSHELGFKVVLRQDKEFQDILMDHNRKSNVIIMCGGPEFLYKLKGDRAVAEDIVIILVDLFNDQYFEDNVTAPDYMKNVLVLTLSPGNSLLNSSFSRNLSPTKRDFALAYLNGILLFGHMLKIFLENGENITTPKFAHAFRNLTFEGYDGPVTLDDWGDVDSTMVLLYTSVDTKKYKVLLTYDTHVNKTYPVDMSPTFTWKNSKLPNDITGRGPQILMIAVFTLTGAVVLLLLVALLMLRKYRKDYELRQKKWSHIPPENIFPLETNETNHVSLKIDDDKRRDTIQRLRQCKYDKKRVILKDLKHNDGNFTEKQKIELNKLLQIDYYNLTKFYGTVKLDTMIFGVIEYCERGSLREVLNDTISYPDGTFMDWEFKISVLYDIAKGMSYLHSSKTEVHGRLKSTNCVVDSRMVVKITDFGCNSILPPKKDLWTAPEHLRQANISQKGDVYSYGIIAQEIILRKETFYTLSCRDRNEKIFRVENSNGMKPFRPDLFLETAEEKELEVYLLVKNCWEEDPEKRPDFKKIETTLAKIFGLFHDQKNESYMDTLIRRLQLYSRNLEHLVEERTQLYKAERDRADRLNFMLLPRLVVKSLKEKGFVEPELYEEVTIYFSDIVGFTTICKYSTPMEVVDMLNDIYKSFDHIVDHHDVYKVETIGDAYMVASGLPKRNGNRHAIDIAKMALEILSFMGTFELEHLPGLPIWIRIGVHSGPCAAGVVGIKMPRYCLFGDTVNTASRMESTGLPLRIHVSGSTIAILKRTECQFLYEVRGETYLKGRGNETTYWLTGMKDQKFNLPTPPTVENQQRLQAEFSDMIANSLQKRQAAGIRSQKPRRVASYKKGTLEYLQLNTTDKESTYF

As for `C[C@@H]1NC(=O)[C@@H]2CCCN2C(=O)[C@H](CC(N)=O)NC(=O)[C@@H]2CSSC[C@H](N)C(=O)N[C@H]3CSSC[C@H](NC1=O)C(=O)N[C@@H]([C@@H](C)O)C(=O)NCC(=O)N[C@H](C(=O)N[C@@H](Cc1ccc(O)cc1)C(=O)O)CSSC[C@H](NC(=O)[C@H](Cc1ccc(O)cc1)NC(=O)[C@H](CCC(=O)O)NC3=O)C(=O)N2` [SEQ ID NO:3, Cys Cys Glu Tyr Cys Cys Asn Pro Ala Cys Thr Gly Cys Tyr] (H-CCEYCCNPACTGCY-OH; disulfide 1-6, 2-10, 5-13; N-terminus and C-terminus assumed), the “activity in GC-C receptor activity assay” value at intestinal GC-C receptor was “activity comparable to SEQ ID NO:4”. For the same compound, the “abdominal response (abdominal contractions, EMG)” value in data set [1] (0.3 μg/kg) and in data set [1] (3 μg/kg) was “Significant decreases in abdominal response” in each case. The compound also yielded a bioavailability in data set [2] (CD1, mouse, serum, oral versus IV) below 0.11%. In addition, in data set [2] (oral), the systemic absorption entry is given as “minimally systemically absorbed”.
